In US8357697B2, “Substituted 3-isobutyl-9,10-dimethoxy-1,3,4,6,7,11b-hexahydro-2H-pyrido[2,1-A]isoquinolin-2-ol compounds and methods relating thereto” (Neurocrine Biosciences, Inc., priority 2006, dated 2013):
Values belong to the molecule of their own block, whether it stands above or below them.

What was measured:
[1] = target: T1, Dopamine D2S receptor (Homo sapiens, UniProt P14416); experiment: Dopamine D2S receptor competition binding ([3H]spiperone); conditions: for inhibition at 10 µM: read-out: D2S (h) % inhibition at 10 uM
T1 construct: expressed in transfected cells; host or cells: CHO cells
Experimental: (§1) The four HTBZ stereoisomers and compounds of the present invention were tested for receptor specificity by screening against a panel of 80 receptors, ion channels and transporters (High-throughput profile, Cerep, S. A.).
(a) Dopamine D2S receptor:
Reference: Grandy et al., (1989) Proc. Natl. Acad. Sci. USA 86: 9762-6
(§2) Source: Human recombinant (CHO cells)
Ligand: [3H]spiperone, 1.0 nM
Incubation time/temperature: 90 min/25° C.
Incubation buffer: 50 mM HEPES, 100 mM NaCl, 1 mM EDTA, 3 mM MgCl2, pH 7.4
Non-specific ligand: clozapine (10 μM)
Specific binding: 600 cpm
(§3) Quantitation method: Scintillation counting

[2] = target: T2, Dopamine D4.4 receptor (Homo sapiens, UniProt P21917); experiment: Dopamine D4.4 receptor competition binding ([3H]spiperone); conditions: for inhibition at 1 µM: read-out: D4.4 (h) % inhibition at 1 uM; for inhibition at 10 µM: read-out: D4.4 (h) % inhibition at 10 uM
T2 construct: expressed in transfected cells; host or cells: CHO cells
T2 sequence (P21917 1-419): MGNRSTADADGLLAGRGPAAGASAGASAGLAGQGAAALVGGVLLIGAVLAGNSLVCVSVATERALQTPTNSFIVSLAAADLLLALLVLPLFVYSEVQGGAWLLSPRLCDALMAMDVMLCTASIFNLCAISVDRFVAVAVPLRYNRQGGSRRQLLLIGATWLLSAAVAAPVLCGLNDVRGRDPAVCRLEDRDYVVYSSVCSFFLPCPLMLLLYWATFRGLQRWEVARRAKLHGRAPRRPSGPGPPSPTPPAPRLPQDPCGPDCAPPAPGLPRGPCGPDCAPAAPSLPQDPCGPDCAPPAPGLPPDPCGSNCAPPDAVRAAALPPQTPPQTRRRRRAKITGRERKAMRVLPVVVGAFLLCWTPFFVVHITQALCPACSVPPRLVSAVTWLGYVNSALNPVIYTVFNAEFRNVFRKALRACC
Experimental: as §1
(b) Dopamine D4.4 receptor:
as §2
Ligand: [3H]spiperone, 0.3 nM
Incubation time/temperature: 60 min./22° C.
Non-specific ligand: (+)butaclamol (10 μM)
as §3

[3] = Stability in dog liver microsomes; format: in vitro ADME; conditions: 1 μM, 0-60 min, FIGS. 2a-2f
[4] = Pharmacokinetic evaluation in dog, single oral dose; format: in vivo; conditions: oral 10 mg/kg (2-1), FIGS. 3c-3d
Experimental: In brief, a single oral dose (6.1 mg/kg for 3-1 and 10 mg/kg for 2-1) in 10% PEG in 0.25% methylcellulose in milli Q water was administered to dogs (3 dogs/dose) for a pharmacokinetic evaluation. Serial sampling was used to collect blood samples, which were taken from each treated animal at nine time points ranging from pre-dose to 24 hours post dose ([…]) for the oral administration. Plasma samples were stored at −80° C. or below until analysis.
Plasma samples were thawed on ice, and 50 μL of plasma was transferred to a 96-well plate. Plasma proteins were precipitated by addition of pre-chilled 150 μL acetonitrile (ACN) containing 75 ng/mL internal standard. Additional 50 μL of ACN/water (60:40) was added into each sample. […] The supernatant was collected and injected into a LC-MS/MS system for quantification. […] Quantification was performed by fitting peak area ratios to a weighted (1/x^2) linear calibration curve.
(§4) Descriptive pharmacokinetics were derived and evaluated based on the plasma concentrations of 3-1, 2-1 and 1d.1 from each individual […]. Pharmacokinetic parameters were determined using Non-Compartmental Analysis of the plasma concentration-time profiles of 3-1, 2-1 and 1d.1 in WinNonlin pharmacokinetic modeling software Professional Version 5.0.1 program (Pharsight Corporation, Mountain View, Calif.).

[5] = Stability in rat liver microsomes; format: in vitro ADME; conditions: 1 μM, 0-60 min, FIGS. 2a-2f
[6] = target: T3, VMAT2 (Rattus norvegicus, UniProt Q01827); experiment: VMAT2 competition binding assay ([3H]-dihydrotetrabenazine); conditions: mean±SD, n in brackets; at least two independent experiments; read-out: pKi (n), VMAT2 affinity from competition binding studies (converted)
T3 construct: on rat forebrain homegenate (100 μg membrane protein per well); from tissue; host or cells: rat striatum (Procedure A, vesicles) or Sprague-Dawley rat forebrain homogenate (Procedure B)
Experimental: Preparation of Rat Striatal Vesicles
Rat striata from three rats are pooled and homogenized in 0.32 M sucrose. The homogenate is then centrifuged at 2,000×g for 10 min at 4° C. and the resulting supernatant is centrifuged at 10,000×g for 30 min at 4° C. The resulting pellet containing the enriched synaptosomal fraction (2 mL) is subjected to osmotic shock by addition of 7 mL of distilled H2O, and subsequently the suspension is homogenized. The osmolarity is restored by the addition of 0.9 mL of 0.25 M HEPES and 0.9 mL of 1.0 M neutral L-(+)-tartaric acid dipotassium salt buffer (pH 7.5), followed by a 20 min centrifugation (20,000×g at 4° C.). […]
Aliquots of the vesicle suspension (0.16 mL, 15 μg of protein/mL) are incubated with competitor compounds (ranging from 1E-6M to 1E-12M) and 2 nM [^3H]-dihydrotetrabenazine (HTBZ; specific activity: 20 Ci/mmol, American Radiolabeled Chemicals, Inc) for 1 h at room temperature in a total volume of 0.5 mL. […] Nonspecific binding is determined using 20 μM tetrabenazine (TBZ). […] Bound radioactivity is determined by scintillation spectrometry.
Following incubation at 25° C. for two hours, bound radioligand was collected by rapid filtration onto GF/B glass fiber filters using a Unifilter-96 Harvester (PerkinElmer). […] Bound radioligand was quantified by scintillation counting using a Topcount NXT (PerkinElmer). […]

[7] = Stability in human liver microsomes; format: in vitro ADME; conditions: 1 μM, 0-60 min, FIGS. 2a-2f
Experimental: Briefly, pooled human liver microsomes (0.1 or 0.5 mg/mL; n>10; mixed gender) were incubated at 37° C. with the test compound in the presence of an NADPH-generating system containing 50 mM, pH 7.4 potassium phosphate buffer, 3 mM magnesium chloride, 1 mM EDTA, 1 mM NADP, 5 mM G-6-P, and 1 Unit/mL G-6-PD.
Incubations were conducted in six modified 2.0-mL, 96-well, deep-well plates in 1 μM of each compound (0.01% DMSO) with a total volume of 250 μl. Each plate, representing a single time point, contained 96 Titertube® Micro Tubes allowing for duplicates of 48 compounds at each time point (0, 5, 10, 20, 40, and 60 minutes). Reaction was stopped by the addition of an appropriate stop reagent (0.3 mL of acetonitrile containing a proprietary internal standard). Precipitated proteins were removed by centrifugation for 15 min at 3000 rpm, and the supernatant fluid (˜0.1 mL) was analyzed by LC/MS for the % of parent compound remaining.
Samples were separated with a gradient HPLC method by Agilent LC systems consisting of a pump, a column heater (40° C.), and a vacuum degasser/mobile phase tray. Mobile phase A was water in 0.1% formic acid and mobile phase B was acetonitrile in 0.1% formic acid. […] The samples were monitored with API-3000 mass spectrometer and ESI ion source in positive mode, TBZ m/z 318.4>220.4, HTBZ m/z 320.3>302.3, and dextromethorphan m/z 272.2>147.2.

[8] = test system: human hepatocytes; experiment: Stability of compounds in human hepatocytes; format: in vitro ADME; conditions: 1 μM, 0-60 min, FIGS. 1a-1c
Experimental: Cryopreserved human hepatocytes from 12 individual donors were thawed according to the supplier's instruction and pooled. Cell viability was determined to be more than 85%. TBZ (1 μM) was incubated with individual human hepatocytes (1×10^6 cells/mL) at 37° C. with 95% O2 and 5% CO2 for 0, 5, 15, 30 and 60 min. TBZ in DMSO was added to achieve 1.0 μM (DMSO was less than 0.5% v/v). All concentrations and cell contents were relative to the final incubation volume of 100 μL. The incubation was terminated by mixing 100 μL of ice-cold acetonitrile in 1% formic acid containing dextromethorphan (1.0 μM) as internal standard for LC/MS analysis. Precipitated proteins were removed by centrifugation (1500-2500×g for 30 min at 15° C.).
Briefly, samples were separated with a gradient HPLC method by Acquity HPLC systems consisting of a pump, a column heater (40° C.), and a vacuum degasser/mobile phase tray. Mobile phase A was water in 0.1% formic acid and mobile phase B was acetonitrile in 0.1% formic acid. The gradient elution was as follows: mobile phase B: 0-10% at 0-0.75 min, 40-90% at 1.25-1.5 min, 90-0% at 1.75-2.0 min, and run time was 3 min. The reverse phase column was a BEH C18 column (50×2.1 mm, 1.7 μm). Flow rate was 0.8 mL/min and injection volume was 7.5 μL. The samples were monitored with API-3000 mass spectrometer and ESI ion source in positive mode, TBZ m/z 318.4>220.4, HTBZ m/z 320.3>302.3, and dextromethorphan m/z 272.2>147.2.

[9] = test system: panel of 80 receptors, ion channels and transporters; experiment: Receptor selectivity binding assays (Cerep high-throughput profile); conditions: versus the dopamine receptors tested
Experimental: as §1

[10] = Pharmacokinetic evaluation in rat, single oral dose; format: in vivo
Experimental: In brief, single oral dose (10 mg/kg) of 2-1 and 3-1 in 10% PEG in 0.25% methylcellulose in milli Q water was administered to rats (3 rats/dose) for a pharmacokinetic evaluation. Serial sampling was used to collect blood samples, which were taken from each treated animal at nine time points ranging from pre-dose to 24 hours post dose (0, 0.25, 0.5, 1, 2, 4, 6, 8 and 24 hours) for the oral administration. Plasma samples were stored at −80° C. or below until analysis.
Plasma samples were thawed on ice, and 50 μL of plasma was transferred to a 96-well plate. Plasma proteins were precipitated by addition of pre-chilled 150 μL acetonitrile (ACN) containing 75 ng/mL internal standard. Additional 50 μL of ACN/water (60:40) was added into each sample. Calibration curve samples were prepared by a serial dilution in ACN/water (60:40). Fifty microliter of each standard sample was transferred to a 96-well plate followed by adding 150 μL acetonitrile (ACN) containing 75 ng/mL internal standard and 50 μL blank rat plasma. The plates were capped, mixed and centrifuged at 3000 rpm for 20 min. The supernatant was collected and injected into a LC-MS/MS system for quantification. […] of QC samples (4, 40, 400, 800 ng/ml) for 3-1,2-1 and 1d.1 were used as quality control for the studies needed and prepared in a same way as the standards. Quantification was performed by fitting peak area ratios to a weighted (1/x^2) linear calibration curve.
as §4

[11] = humans, background statement; cited from earlier work

T1 sequence (P14416 1-414 isoform P14416-2): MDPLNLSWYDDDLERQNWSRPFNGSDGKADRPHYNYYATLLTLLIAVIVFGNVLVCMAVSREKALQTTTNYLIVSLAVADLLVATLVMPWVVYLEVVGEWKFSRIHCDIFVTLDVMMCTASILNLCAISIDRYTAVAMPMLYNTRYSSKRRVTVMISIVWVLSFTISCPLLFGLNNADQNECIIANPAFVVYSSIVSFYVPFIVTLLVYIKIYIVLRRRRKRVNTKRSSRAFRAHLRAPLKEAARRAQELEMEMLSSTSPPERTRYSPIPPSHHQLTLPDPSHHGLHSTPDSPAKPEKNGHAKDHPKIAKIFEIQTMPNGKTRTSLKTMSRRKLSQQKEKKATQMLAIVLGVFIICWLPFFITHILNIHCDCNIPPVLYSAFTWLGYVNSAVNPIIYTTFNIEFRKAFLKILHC
T3 sequence (Q01827 whole entry): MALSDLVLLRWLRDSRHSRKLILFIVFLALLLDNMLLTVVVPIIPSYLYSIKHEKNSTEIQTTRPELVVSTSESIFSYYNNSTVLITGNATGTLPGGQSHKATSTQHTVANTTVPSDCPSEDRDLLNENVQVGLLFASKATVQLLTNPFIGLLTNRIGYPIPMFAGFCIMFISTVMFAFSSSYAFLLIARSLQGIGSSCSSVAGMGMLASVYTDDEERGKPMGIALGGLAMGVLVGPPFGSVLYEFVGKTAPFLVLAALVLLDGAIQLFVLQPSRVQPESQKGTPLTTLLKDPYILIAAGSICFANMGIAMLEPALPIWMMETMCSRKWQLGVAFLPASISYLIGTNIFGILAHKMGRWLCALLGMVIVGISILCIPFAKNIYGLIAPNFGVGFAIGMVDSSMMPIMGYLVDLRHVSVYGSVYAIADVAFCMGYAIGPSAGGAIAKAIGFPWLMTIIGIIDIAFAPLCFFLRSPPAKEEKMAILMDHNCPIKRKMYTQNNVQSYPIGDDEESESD

SMILES: COc1cc2c(cc1OC)[C@H]1C[C@@H](OC(=O)[C@@H](N)C(C)C)[C@H](CC(C)C)CN1CC2 [Compound 2-1, (S)-2-Amino-3-methyl-butyric acid (2R,3R,11bR)-3-isobutyl-9,10-dimethoxy-1,3,4,6,7,11b-hexahydro-2H-pyrido[2,1-a]isoquinolin-2-yl ester]
conversion to 1d.1 in dog liver microsomes, compared with compound 3-1 [3]: slower
plasma half-life of 1d.1 upon oral administration of compound 2-1 relative to compound 3-1 [4]: 2-3 times
conversion to 1d.1 in rat liver microsomes, compared with compound 3-1 [5]: slower
Ki [6]: 200 nM
conversion to 1d.1 in human liver microsomes, compared with compound 3-1 [7]: slower
inhibition at 10 µM [1]: 2%
conversion in human hepatocytes to HTBZ (tetrabenazine) or to 1d.1 (compounds 2-1, 3-1) [8]: comparatively slow
inhibition at 10 µM [2]: 13%
selectivity for VMAT2 (in words) [9]: demonstrated selectivity for VMAT2
plasma half-life of 1d.1 upon oral administration of compound 2-1 relative to compound 3-1 ([10]; oral 10 mg/kg, FIGS. 3a-3b): 2-3 times

SMILES: CCOC(=O)O[C@@H]1C[C@@H]2c3cc(OC)c(OC)cc3CCN2C[C@H]1CC(C)C [Compound 3-1, Carbonic acid ethyl ester (2R,3R,11bR)-3-isobutyl-9,10-dimethoxy-1,3,4,6,7,11b-hexahydro-2H-pyrido[2,1-a]isoquinolin-2-yl ester]
Ki [6]: 12.6 nM
inhibition at 10 µM [1]: 15%
conversion in human hepatocytes to HTBZ (tetrabenazine) or to 1d.1 (compounds 2-1, 3-1) [8]: rapid
inhibition at 10 µM [2]: 15%
selectivity for VMAT2 (in words) [9]: demonstrated selectivity for VMAT2
parent compound in rat plasma after oral administration ([10]; oral 10 mg/kg, limit of quantification 1 ng/mL): No 3-1 was detected
rat plasma concentration time profile of 1d.1 from 3-1 compared with 1d.1 administered orally ([10]; oral, FIG. 3a): indistinguishable

SMILES: COc1cc2c(cc1OC)[C@H]1C[C@H](O)[C@H](CC(C)C)CN1CC2 [2S, 3R, 11bR-HTBZ, (2S,3R,11bR)-3-isobutyl-9,10-dimethoxy-1,3,4,6,7,11b-hexahydro-2H-pyrido[2,1-a]isoquinolin-2-ol]
binding/inhibition at D2(S) (in words) [1]: some minor inhibition
inhibition at 30 µM ([1]; read-out: D2S (h) % inhibition at 30 uM): 17%
inhibition at dopamine D4.4 receptor (in words) [2]: some minor inhibition
inhibition at 10 µM [2]: 30%

Continued, in another order:

Ki [1]: 192 nM
binding/inhibition at D2(S) (in words) [1]: high affinity binding
inhibition at 1 µM [2]: 9%
SMILES: COc1cc2c(cc1OC)[C@@H]1C[C@H](O)[C@@H](CC(C)C)CN1CC2 [2S, 3S, 11bS-HTBZ]

Ki [1]: 57 nM
binding/inhibition at D2(S) (in words) [1]: high affinity binding
Ki [2]: 67 nM
SMILES: COc1cc2c(cc1OC)[C@@H]1C[C@@H](O)[C@@H](CC(C)C)CN1CC2 [2R, 3S, 11bS-HTBZ]

inhibition at 10 µM [1]: -6%
inhibition at 1 µM [2]: 0%
SMILES: COc1cc2c(cc1OC)[C@H]1C[C@@H](O)[C@H](CC(C)C)CN1CC2 [2R, 3R, 11bR-HTBZ, (2R,3R,11bR)-3-isobutyl-9,10-dimethoxy-1,3,4,6,7,11b-hexahydro-2H-pyrido[2,1-a]isoquinolin-2-ol]

conversion in human hepatocytes to HTBZ (tetrabenazine) or to 1d.1 (compounds 2-1, 3-1) [8]: rapid
SMILES: COc1cc2c(cc1OC)C1CC(=O)C(CC(C)C)CN1CC2 (racemic) [Tetrabenazine, 3-Isobutyl-9,10-dimethoxy-1,3,4,6,7,11b-hexahydro-2H-pyrido[2,1-a]isoquinolin-2-one, reference compound]
bioavailability [11]: fairly low and variable
